In data set [1] the test system is PROb cells. Put plainly: PROb i.p. rat colon cancer model, 5-FU combined with OM-174: carcinomatosis classes, ascites, survival. Type of data set: in vivo. Particulars: day 61. The procedure: On day 0 (D0), 106 PROb cells were injected i.p. to each rat. 5-FU was administered i.p. at the dose of 30 mg/kg on days 7 and 14. OM-174 was injected at the dose of 1 mg/kg i.v. from day 21 three times a week for a total of 10 injections.
All rats (controls and treated) were sacrificed by CO2 on day 61. The efficacy of the treatment was determined by read-outs such as survival (FIG. 5) and measure of the classes of cancer given depending on the number and the size of the nodules, and also by ascites measurements. Carcinomatoses were evaluated blindly. As it is impossible to measure the volume of a carcinomatosis, they were classified according to the number and diameter of the nodules: • Class 0: no visible nodule • Class 1: some countable nodules with a diameter from 0.1 to 0.3 cm • Class 2: many uncountable nodules with a diameter from 0.1 to 0.3 cm • Class 3: some nodules with a diameter of 1 cm invade the peritoneal cavity • Class 4: the cavity is completely invaded by tumor masses of several cm.
The ascite volume was measured by double weights of the rats.

The test system of data set [2] is PROb subcutaneous colon tumors. Type of data set: in vivo, BDIX rats. Particulars: rat, in vivo.
Data set [3] concerns spleen cells expressing CD4, CD8, and NK1.1. The data set can be described thus: Flow cytometric analysis of spleen cell subsets. Particulars: B16 tumour-bearing mice, day 14, mean ± S.E.M. Type of data set: in vivo, C57BL/6 mice. The procedure: Splenocytes from individual mice were analysed by flow cytometry. The following monoclonal antibodies were used for double fluorescence analysis of spleen cell subsets: fluorescein (FITC)-conjugated anti-mouse NK1.1 PE (PharMingen, San Diego, Calif.), PE-conjugated anti-mouse CD4 (PharMingen), FITC-conjugated anti-mouse CD8 (PharMingen). Approximately 1×10^6 spleen cells were resuspended in […] of CM and staining was performed at 4° C. for 30 minutes. Cells were then washed twice in PBS containing 0.02% sodium azide and flow cytometric analysis was performed using a FACscan flow cytometer (Becton Dickinson).
Fluorescence data were collected using a 488 nm excitation wavelength from a 15 mW air-cooled argon-ion laser. […] A minimum of 5,000 events were collected on each sample and acquired in list mode by a Hewlett Packard 9000 computer. To exclude dead cells, debris, non lymphoid cells, and cell aggregates, data collection was gated on live spleen lymphocytes by forward and side angle scatter. Data are represented as the percentage of positive cells over the total number of cells counted.

For another data set, the system named is B16 melanoma. The data set can be described thus: B16 melanoma model: tumour growth and survival time. Type of data set: in vivo, C57BL/6 mice. Particulars: CY 200 mg/Kg i.p. day 7; OM-174 1 mg/kg i.p. days 8, 13, 18, 23, 28; vs untreated controls. The procedure: Four to six weeks-old male C57BL/6 mice were purchased from Charles River (Calco, Corno, Italy). B 16 melanoma tumour cells were serially passaged subcutaneously (s.c.) in syngenic mice. On day 0, mice were injected s.c. in the right flank with 2×10^5 B16 melanoma cells. Tumour growth was measured daily in each mouse, using calipers, and mean tumour diameter per day was calculated. At day 7 after tumour injection, all mice with s.c. tumours of about 2-3 mm diameter were divided into different experimental groups, i.e. phosphate buffered saline (PBS)-injected control 3, CY, OM-174 or CY with OM-174.
Cyclophosphamide (Sigma, St. Louis, Mo.) was dissolved at 20 mg/ml in PBS immediately before use, and 0.2 ml per mouse were injected intraperitoneally. Each treated animal received a single dose of 200 mg/Kg CY on day 7.
Kaplan-Meier method was used to estimate the survivor functions and Log-rank test was performed for testing the homogeneity of survival functions across the four groups (control, CY, OM-174, CY+OM-174).
Tumor growth was analyzed by T-test for unpaired data.

Another data set has as its system YAC-1 cells. Put plainly: NK activity of spleen cells, 4-hour 51Cr-release assay. As to conditions: day 14.
The test system of the next data set is B16 melanoma cells. The data set can be described thus: Cytotoxic (CTL) activity of spleen cells against autologous tumour cells, 51Cr-release assay.
Data set [4] has as its system PROb cells. Put plainly: BDIX/PROb peritoneal carcinomatosis, cisplatin combined with OM-174, survival. Type of data set: in vivo, BDIX rats. As to conditions: cisplatin 3 mg/kg i.v. day 21; OM-174 1 mg/kg i.v., 5 injections every 5th day from day 28 or 35. The protocol: Colon cancer PROb cells were originally obtained from a tumor of a BDIX rat induced by 1,2-dimethylhydrazine.
The BDIX strain of rats was established in 1937 by H. Druckrey. Nowadays these rats come from Iffa-Credo (L'Asbresle, France).
BDIX rats, 4 months±1 month at the beginning of the experiment, 7 animals/group, received i.p. cultured syngenic PROb cells (i.p) on day 0. Cisplatin (3 mg/kg) was injected i.v. on day 21, and OM-174 treatment (1 mg/kg, 5 injections i.v. in the penile vein every 5th day) started either on days 28 or 35. Survival was followed until day 72 in the example presented here.
In this example, cisplatin (3 mg/kg i.v) is given on day 21. A further immunostimulating treatment with OM-174 is started only on day 28 or 35 (1 mg/kg, 5 injections i.v. every 5th day).

Setting [5] is: positive cells vs total spleen cells.

“Also recorded” adds a separate entry of the source.

Description for B16 melanoma cells: (§1) Mice were sacrificed by cervical dislocation on day 14 after tumour inoculation.
(§2) In vitro-passaged YAC-1 cells (a Moloney-virus induced mouse T cells lymphoma of A/SN origin), and in vivo-passaged B16 melanoma cells, were used as target cells in a chromium-release assay. B16 melanoma cells were obtained from tumour-bearing mice, seeded in cell-culture flasks (Falcon, Becton Dickinson and Co., Plymouth, England) and used within the first week of culture in CM. B16 and YAC-1 cell lines were obtained from the laboratory collection, and were originally obtained from the American Tissue Culture Collection (ATCC).
(§3) The cytotoxic activity of the effector cells collected from individual mice was measured by a standard 4-hour ^51Cr-release assay. Briefly, target cells were harvested from the cultures, washed twice, resuspended at 5×10^6 cells in 0.9 ml of CM and labelled with 100 μCi (^51Cr) sodium chromate (New England Nuclear, Boston, Mass.) for 1 hour at 37° C. in a 5% CO2 incubator. […] The effector cells suspension was added to quadruplicate wells to give three E/T ratios (i.e. 100:1, 50:1, 25:1) in a final volume of 200 μl per well. The plates were then incubated for 4 hours at 37° C. in a 5% CO2 incubator, 100 μl of supernatants were collected from each well, and the radioactivity was measured using a gamma counter. Total mean cytotoxicity±S.E.M. were calculated from quadruplicate cpm values from individual spleens.
It has been tested from spleen cells from normal and tumour-bearing mice for specific cytotoxic activity against autologous tumour cells using in-vivo passaged B16 melanoma cells as target.
Description for YAC-1 cells: as §1, §2, §3
It has been therefore measured the cytotoxic activity of splenocytes against NK-sensitive (YAC-1) tumour cells.

As to `O=c1[nH]cc(F)c(=O)[nH]1` [5-FU, 5-Fluorouracil, reference compound], the “Number of rats in carcinomatosis class 0” value in the data set with PROb cells [1] (Class 0: no visible nodule, 5-FU 30 mg/kg i.p. days 7 and 14, OM-174 1 mg/kg i.v. from day 21, 10 injections) came to 2. The “Number of rats in carcinomatosis class 1” value in the data set with PROb cells [1] (Class 1: some countable nodules with a diameter from 0.1 to 0.3 cm) came to 0. Also, the “Number of rats in carcinomatosis class 2” value in the data set on PROb cells [1] (Class 2: many uncountable nodules with a diameter from 0.1 to 0.3 cm) worked out at 0. For the same compound, in the data set with PROb cells [1] (Class 3: some nodules with a diameter of 1 cm invade the peritoneal cavity), the “Number of rats in carcinomatosis class 3” value is given as 0. For the same compound, in the data set on PROb cells [1] (Class 4: the cavity is completely invaded by tumor masses of several cm), the “Number of rats in carcinomatosis class 4” value came out at 8. In addition, in the data set with PROb cells [1], the “Carcinomatosis classes versus Control group (Mann-Whitney test)” value is “No significant difference”. The Ascites in the data set with PROb cells [1] (measured by double weights of the rats) was 44 mL.

`O=P1(N(CCCl)CCCl)NCCCO1` (stereo not shown) [CY, cyclophosphamide, reference compound]: in data set [2], the “Antitumoral effect of single treatment on large, established PROb tumors (in words, FIG. 3)” value is on record as “transient regression; also recorded: unable to cure animals” and the “Number of cured animals/total number of animals” value is listed as 0/6. The “NK (%)” value in data set [3] (NK1.1 positive cells vs total spleen cells) is reported as 4 ± 0.5%. Further, in data set [3] (setting [5]), the “CD4^+ (%)” value was 21.7 ± 1.8% and the “CD8^+ (%)” value came to 6.4 ± 1.4%. Besides, in the data set on B16 melanoma, the “B16 tumour growth (in words, FIG. 1)” value was “inhibited slightly but significantly” and the “Survival time (MST) of mice (in words, FIG. 2)” value is given as “increased slightly but significantly”. Further, in the data set with YAC-1 cells (B16 melanoma-injected mice), the “NK activity (in words)” value is “decreased NK activity”. Further, the NK % cytotoxicity in the data set on YAC-1 cells (B16 tumour-bearing mice, E/T ratio 25:1, CY 200 mg/Kg i.p. day 7, OM-174 1 mg/kg i.p. days 8 and 13, mean ± S.E.) is given as 2.3 ± 0.4%. Also, the CTL % cytotoxicity in the data set with B16 melanoma cells (B16 tumour-bearing mice, day 14, E/T ratio 25:1, CY 200 mg/Kg i.p. day 7, OM-174 1 mg/kg i.p. days 8 and 13, mean ± S.E.) is given as 2.63 ± 0.2%. Further, the “Cytotoxic activity against autologous tumour cells (in words)” value in the data set on B16 melanoma cells (tumour-bearing mice) is on record as “not to be increased”.

Regarding `N.N.[Cl][Pt][Cl]` [Cisplatin, cisplatin, reference compound], in the data set on PROb cells [4], the “Antitumour activity / survival (in words, FIG. 4)” value is reported as “only partial efficacy”.

(Values after patent US20090214669A1, “Combination anticancer therapy and pharmaceutical compositions therefore” (priority 2004, published 2009).)
